Experimental findings from US20260305610A1, “TRIAZOLE COMPOUND, AND PREPARATION METHOD THEREFOR, HERBICIDAL COMPOSITION AND USE THEREOF” (QINGDAO KINGAGROOT CHEMICAL COMPOUND CO., LTD., priority 2023, published 2026) are described below.

Holding throughout (type): in vivo
One data set relates to Cyperus iria. Description: Pre-emergence sealing experiment for water-seeding. Set-up: key: 9: completely dead; 8: growth control rate is greater than or equal to 90% and less than 100%; 7: growth control rate is greater than or equal to 80% and less than 90%; 6: growth control rate is greater than or equal to 70% and less than 80%; growth control rate is greater than or equal to 50% and less than 70%; 4: growth control rate is greater than or equal to 30% and less than 50%; growth control rate is greater than or equal to 20% and less than 30%; growth control rate is greater than or equal to 10% and less than 20%; growth control rate is less than 10%; 0: no effect. As to conditions: 15 days, sulfonylurea-resistant strain. The text has this: (§1) The activity level criteria for plant damage (i.e., growth control rate) are as follows: • Level 9: completely dead; • Level 8: growth control rate is greater than or equal to 90% and less than 100%; • Level 7: growth control rate is greater than or equal to 80% and less than 90%; • Level 6: growth control rate is greater than or equal to 70% and less than 80%; • Level 5: growth control rate is greater than or equal to 50% and less than 70%; • Level 4: growth control rate is greater than or equal to 30% and less than 50%; • Level 3: growth control rate is greater than or equal to 20% and less than 30%; • Level 2: growth control rate is greater than or equal to 10% and less than 20%; • Level 1: growth control rate is less than 10%; • Level 0: no effect.
(§2) The seeds of Leptochloa chinensis, Digitaria sanguinalis, Monochoria vaginalis (sulfonylurea-resistant strain, collected from Hunan, China), Cyperus iria (sulfonylurea-resistant strain, collected from Jiangsu, China), Huaidao (rice cultivar), etc. were broadcasted on the surface of nutrition bowls filled with soil and fully covered by soil. The prepared nutrition bowls were then placed in a cultivation box, with water filled to a suitable height to keep the soil in the nutrition bowls moist. The test compounds of the present invention were individually dissolved with mixed solutions of acetone and Tween-80, then diluted into solution of a certain concentration using a certain amount of water and sprayed using a spray tower. The plants were placed on a greenhouse seedbed and cultured for 15 days, and the experimental results were then collected. The compounds were applied at 120, 60, 30 and 15 g a.i./ha in triplicate and the results were averaged. The effects were evaluated according to the above activity level criteria.

The test system of the next data set is Digitaria sanguinalis. Description: Pre-emergence sealing experiment for water-seeding. Set-up: key: 9: completely dead; 8: growth control rate is greater than or equal to 90% and less than 100%; 7: growth control rate is greater than or equal to 80% and less than 90%; 6: growth control rate is greater than or equal to 70% and less than 80%; growth control rate is greater than or equal to 50% and less than 70%; 4: growth control rate is greater than or equal to 30% and less than 50%; growth control rate is greater than or equal to 20% and less than 30%; growth control rate is greater than or equal to 10% and less than 20%; growth control rate is less than 10%; 0: no effect. As to conditions: 15 days.
Source text: as §1, §2

The subject of a further data set is Leptochloa chinensis. In words: Pre-emergence sealing experiment for water-seeding. More on the design: key: 9: completely dead; 8: growth control rate is greater than or equal to 90% and less than 100%; 7: growth control rate is greater than or equal to 80% and less than 90%; 6: growth control rate is greater than or equal to 70% and less than 80%; growth control rate is greater than or equal to 50% and less than 70%; 4: growth control rate is greater than or equal to 30% and less than 50%; growth control rate is greater than or equal to 20% and less than 30%; growth control rate is greater than or equal to 10% and less than 20%; growth control rate is less than 10%; 0: no effect. As to conditions: 15 days.
Source text: as §1, §2

For the next data set, the system named is Monochoria vaginalis. In words: Pre-emergence sealing experiment for water-seeding. Set-up: key: 9: completely dead; 8: growth control rate is greater than or equal to 90% and less than 100%; 7: growth control rate is greater than or equal to 80% and less than 90%; 6: growth control rate is greater than or equal to 70% and less than 80%; growth control rate is greater than or equal to 50% and less than 70%; 4: growth control rate is greater than or equal to 30% and less than 50%; growth control rate is greater than or equal to 20% and less than 30%; growth control rate is greater than or equal to 10% and less than 20%; growth control rate is less than 10%; 0: no effect. As to conditions: 15 days, sulfonylurea-resistant strain.
Source text: as §1, §2

For another data set, the system named is weeds. In words: Activity assay of compositions: soil sealing treatment (S), fresh weight inhibition and combined effect (Gowing method). As to conditions: Silene conoidea, 21 d. As to the method: The required active ingredient B was purchased from a reagent company or a technical material manufacturer or synthesized by a conventional method. The technical materials were all dissolved with acetone solvents and diluted with aqueous solution of 0.1% Tween-80 emulsifier, which should be used immediately after dilution.
• Weeds were cultivated in a controllable sunlight greenhouse at 20 to 30° C., in natural light, and with relative humidity of 57% to 72%. […] The test soil was quantitatively filled to ¾ of the pot, and then watered from the bottom of the pot to completely wet the soil to saturation. The test weed seeds were accelerated to just germinate, and then evenly and quantitatively broadcasted on the soil surface, covered with 0.5-1 cm soil according to the sizes of the seeds, and ready for use 72 hours after sowing.
Each treatment was repeated 4 times. Four pots with 20 weed seeds sowed per pot were treated each time.
The well-sowed test materials were evenly placed on a platform with an area of 0.5 m^2, and foliage spraying was carried out by the 3WP-2000-type walking spray tower at a dosage of 450 kg/ha and a spray pressure of 0.3 MPa. After all the solution was sprayed, the air valve was closed. And 30 seconds later, the door of the spray tower was opened, and the nutritional bowl was taken out. Next, the air valve was opened, and the spray tube was cleaned by spraying 50 ml of water.
A method for investigating absolute numbers was employed. Whole seedlings of survival weeds were cut off along the soil surface with a blade, and the fresh weight of the weeds was weighed using an analytical balance. For dead weeds, the fresh weight thereof was zero.
The investigation was performed 21 days after the treatment for once in total.
The theoretical fresh weight inhibition rate of a mixed combination of each treatment was calculated by the Gowing method (E0=X+Y−X*Y/100). Then compared with the measured inhibition rate (E), the type of the combined effect of the combination of the two on weeds was evaluated, which was a synergistic effect when E−E0>10%; an antagonistic effect when E−E0<−10%; an additional effect when −10%≤E−E0≤10%. An optimal ratio was determined according to factors such as the actual control effects, characteristics of herbicides, balance of the formulation, etc. In the formula, X represents the fresh weight inhibition rate of the active ingredient A in a dosage of P; Y represents the fresh weight inhibition rate of the active ingredient B in a dosage of Q. The statistical results are shown in Table 4.

Data set [1] deals with monocotyledonous and dicotyledonous weeds. Description: Pre-emergence test experiment (weeds). Set-up: key: 9: completely dead; 8: growth control rate is greater than or equal to 90% and less than 100%; 7: growth control rate is greater than or equal to 80% and less than 90%; 6: growth control rate is greater than or equal to 70% and less than 80%; growth control rate is greater than or equal to 50% and less than 70%; 4: growth control rate is greater than or equal to 30% and less than 50%; growth control rate is greater than or equal to 20% and less than 30%; growth control rate is greater than or equal to 10% and less than 20%; growth control rate is less than 10%; 0: no effect. As to conditions: 30 g a.i./ha.

A further data set concerns major crops. In words: Pre-emergence test experiment (crops). As to conditions: 30 g a.i./ha. Set-up: key: 9: completely dead; 8: growth control rate is greater than or equal to 90% and less than 100%; 7: growth control rate is greater than or equal to 80% and less than 90%; 6: growth control rate is greater than or equal to 70% and less than 80%; growth control rate is greater than or equal to 50% and less than 70%; 4: growth control rate is greater than or equal to 30% and less than 50%; growth control rate is greater than or equal to 20% and less than 30%; growth control rate is greater than or equal to 10% and less than 20%; growth control rate is less than 10%; 0: no effect.

For data set [2], the system named is Echinochloa crusgalli, Schoenoplectiella juncoides and Bidens tripartita. In words: Resistance of collected weed seeds to pyrazosulfuron-ethyl. As to conditions: conventional doses; seeds collected from Heilongjiang, China.

Consider `COC(=O)c1ccccc1CS(=O)(=O)NC(=O)Nc1nc(OC)cc(OC)n1` [Bensulfuron-methyl, bensulfuron-methyl, reference compound], for which the “activity level (growth control rate, fresh weight), Cyperus iria” value in the data set with Cyperus iria (30 g a.i./ha) was 5 (growth control rate is greater than or equal to 50% and less than 70%). In addition, in the data set on Digitaria sanguinalis (30 g a.i./ha), the “activity level (growth control rate, fresh weight), Digitaria sanguinalis” value was 4 (growth control rate is greater than or equal to 30% and less than 50%). For the same compound, in the data set on Leptochloa chinensis (30 g a.i./ha), the “activity level (growth control rate, fresh weight), Leptochloa chinensis” value was 3 (growth control rate is greater than or equal to 20% and less than 30%). Moreover, the “activity level (growth control rate, fresh weight), Monochoria vaginalis” value with Monochoria vaginalis (30 g a.i./ha) is 2 (growth control rate is greater than or equal to 10% and less than 20%). The entries for the “Control effect of B applied alone in a corresponding dose (%)” value in the data set on weeds (B 15 g a.i./ha) and with weeds (B 30 g a.i./ha) were 43.7% and 60.5%, respectively.

On to `COCc1ccc(-n2cnc(C(F)(F)F)n2)nc1Oc1cccc(C(F)(F)F)c1` [Compound 23], for which, in data set [1] (Amaranthus retroflexus), the “Pre-emergence activity level (growth control rate) on Amaranthus retroflexus” value came out at 9. Further, the “Pre-emergence activity level (growth control rate) on Descurainia sophia” value in data set [1] (Descurainia sophia) stood at 9. The “Pre-emergence activity level (growth control rate) on Digitaria sanguinalis” value in data set [1] (Digitaria sanguinalis) amounted to 9. In data set [1] (Setaria viridis), the “Pre-emergence activity level (growth control rate) on Setaria viridis” value is 8 (growth control rate is greater than or equal to 90% and less than 100%). For the same compound, the “Pre-emergence activity level (growth control rate) on Solanum nigrum” value in data set [1] (Solanum nigrum) is listed as 9. Further, the “Pre-emergence activity level (growth control rate) on Veronica” value in data set [1] (Veronica) came out at 9. For the same compound, the “Pre-emergence plant damage level (growth control rate) on Corn” value with major crops (Corn) came to 0. The “Pre-emergence plant damage level (growth control rate) on Cotton” value in the data set with major crops (Cotton) came out at 0. The “Pre-emergence plant damage level (growth control rate) on Soybean” value in the data set with major crops (Soybean) came out at 0. Moreover, the “activity level (growth control rate, fresh weight), Cyperus iria” value in the data set with Cyperus iria (15 g a.i./ha) was determined as 9. In the data set with Digitaria sanguinalis (15 g a.i./ha), the “activity level (growth control rate, fresh weight), Digitaria sanguinalis” value turned out to be 9. Moreover, in the data set with Leptochloa chinensis (15 g a.i./ha), the “activity level (growth control rate, fresh weight), Leptochloa chinensis” value was 9. The “activity level (growth control rate, fresh weight), Monochoria vaginalis” value in the data set on Monochoria vaginalis (15 g a.i./ha) was 9.

With `CCOC(=O)c1cnn(C)c1S(=O)(=O)NC(=O)Nc1nc(OC)cc(OC)n1` [pyrazosulfuron-ethyl, reference compound], the “Control effect of B applied alone in a corresponding dose (%)” value was determined as 50.4% in the data set with weeds (B 15 g a.i./ha) and 65.6% in the data set on weeds (B 30 g a.i./ha). The “resistance of collected weed seeds” value in data set [2] was “resistant to conventional doses”.
